Reference: patent US8207177B2, “Inhibitors of E1 activating enzymes” (Millennium Pharmaceuticals, Inc., priority 2006, dated 2012)
pIC50: −log10 of the molar value.

Target: T1, recombinant human NAE enzyme (Homo sapiens, UniProt Q8TBC4)
T1 construct: His (N); made in house; host or cells: Sf9 insect cells (baculovirus, Bac-to-Bac), purified on Ni-NTA
T1 sequence (Q8TBC4 1-463): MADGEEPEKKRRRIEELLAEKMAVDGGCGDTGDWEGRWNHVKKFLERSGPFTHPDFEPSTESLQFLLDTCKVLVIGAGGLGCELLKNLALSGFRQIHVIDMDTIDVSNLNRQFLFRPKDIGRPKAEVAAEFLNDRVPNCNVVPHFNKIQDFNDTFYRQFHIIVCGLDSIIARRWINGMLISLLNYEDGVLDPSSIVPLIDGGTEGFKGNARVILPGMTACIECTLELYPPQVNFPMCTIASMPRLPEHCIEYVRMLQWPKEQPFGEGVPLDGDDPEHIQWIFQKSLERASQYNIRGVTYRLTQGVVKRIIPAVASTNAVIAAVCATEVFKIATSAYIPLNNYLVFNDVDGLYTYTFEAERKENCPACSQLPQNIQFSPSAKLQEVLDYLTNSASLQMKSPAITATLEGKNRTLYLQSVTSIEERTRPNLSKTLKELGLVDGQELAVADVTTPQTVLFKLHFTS
T1 sequence (Q13564 1-534 partner): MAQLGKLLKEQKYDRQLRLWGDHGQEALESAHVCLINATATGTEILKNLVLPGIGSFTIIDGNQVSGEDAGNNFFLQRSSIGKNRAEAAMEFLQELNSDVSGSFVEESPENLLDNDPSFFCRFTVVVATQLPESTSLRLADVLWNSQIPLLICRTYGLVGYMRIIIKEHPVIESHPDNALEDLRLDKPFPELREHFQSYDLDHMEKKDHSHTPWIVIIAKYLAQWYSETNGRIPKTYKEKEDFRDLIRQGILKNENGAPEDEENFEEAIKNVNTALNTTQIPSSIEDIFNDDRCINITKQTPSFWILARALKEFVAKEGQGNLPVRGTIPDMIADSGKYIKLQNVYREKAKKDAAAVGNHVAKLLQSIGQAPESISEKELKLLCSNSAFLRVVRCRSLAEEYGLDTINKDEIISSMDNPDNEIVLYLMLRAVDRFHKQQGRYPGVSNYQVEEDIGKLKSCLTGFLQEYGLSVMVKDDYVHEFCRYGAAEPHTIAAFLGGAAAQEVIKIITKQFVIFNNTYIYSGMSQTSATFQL
Assay: Nedd8-Activating Enzyme (NAE) HTRF Assay
Format: biochemical
Details: threshold statement: less than or equal to 100 nM; 20 μM ATP, 90 minutes at 24° C.
Procedure: Following manufacturer instructions, baculoviruses were generated with the Bac-to-Bac Expression System (Invitrogen) for the following proteins: untagged NAEα (APPBP1; NP_003896.1), N-terminally His-tagged NAEβ (UBE1C; NP_003959.3), untagged SAEα (SAE1; NP_005491.1), N-terminally His-tagged SAEβ (UBA2; NP_005490.1), N-terminally His-tagged murine UAE (UBE1X; NP_033483). NAEα/His-NAEβ and SAEα/His-SAEβ complexes were generated by co-infection of Sf9 cells, which were harvested after 48 hours. His-mUAE was generated by single infection of Sf9 cells and harvested after 72 hours. Expressed proteins were purified by affinity chromatography (Ni—NTA agarose, Qiagen) using standard buffers. Ubc12 (UBE2M; NP_003960.1), Ubc9 (UBE2I; NP_003336.1), Ubc2 (UBE2A; NP_003327.2) were subcloned into pGEX (Pharmacia) and expressed as N-terminally GST tagged fusion proteins in E. coli. Expressed proteins were purified by conventional affinity chromatography using standard buffers. Nedd8 (NP_006147), Sumo-1 (NP_003343) and Ubiquitin (with optimized codons) were subcloned into pFLAG-2 (Sigma) and expressed as N-terminally Flag tagged fusion proteins in E. coli. Expressed proteins were purified by conventional chromatography using standard buffers. Nedd8-Activating Enzyme (NAE) HTRF Assay. The NAE enzymatic reaction totaled 50 μL and contained 50 mM HEPES (pH 7.5), 0.05% BSA, 5 mM MgCl2, 20 μM ATP, 250 μM GSH, 0.01 μM Ubc12-GST, 0.075 μM Nedd8-Flag and 0.28 nM recombinant human NAE enzyme. The enzymatic reaction mixture, with and without compound inhibitor, was incubated at 24° C. for 90 minutes in a 384-well plate before termination with 25 μL of Stop/Detection buffer (0.1M HEPES pH 7.5, 0.05% Tween20, 20 mM EDTA, 410 mM KF, 0.53 nM Europium-Cryptate labeled monoclonal anti-FLAG M2 antibody (CisBio International) and 8.125 μg/mL PHYCOLINK goat anti-GST allophycocyanin (XL-APC) antibody (Prozyme)). After incubation for 3 hours at 24° C., quantification of the FRET was performed on the Analyst™ HT 96.384 (Molecular Devices).

Structure (SMILES) | pIC50
CC(C)(Cc1ncnc2c1ccn2[C@@H]1C[C@@H](COS(N)(=O)=O)[C@@H](O)C1)c1ccccc1 [Compound I-50, {(1S,2S,4R)-2-hydroxy-4-[4-(2-methyl-2-phenylpropyl)-7H-pyrrolo[2,3-d]-pyrimidin-7-yl]cyclopentyl}methyl sulfamate] | ≥ 7.00
NS(=O)(=O)OC[C@@H]1C[C@@H](n2ccc3c(NCc4cccc(Cl)c4)ncnc32)C[C@@H]1O [Compound I-51, ((1S,2S,4R)-4-{4-[(3-chlorobenzyl)amino]-7H-pyrrolo[2,3-d]pyrimidin-7-yl}-2-hydroxycyclopentyl)methyl sulfamate] | ≥ 7.00
CO[C@H]1Cc2ccccc2[C@H]1Nc1ncnc2c1ccn2[C@@H]1C[C@@H](COS(N)(=O)=O)[C@@H](O)C1 [Compound I-52, [(1S,2S,4R)-2-hydroxy-4-(4-{[(1R,2S)-2-methoxy-2,3-dihydro-1H-inden-1-yl]-amino}-7H-pyrrolo[2,3-d]pyrimidin-7-yl)cyclopentyl]methyl sulfamate] | ≥ 7.00
CC(C)O[C@H]1Cc2ccccc2[C@H]1Nc1ncnc2c1ccn2[C@@H]1C[C@@H](COS(N)(=O)=O)[C@@H](O)C1 [Compound I-54, [(1S,2S,4R)-2-hydroxy-4-(4-{[(1R,2S)-2-isopropoxy-2,3-dihydro-1H-inden-1-yl]-amino}-7H-pyrrolo[2,3-d]pyrimidin-7-yl)cyclopentyl]methyl sulfamate] | ≥ 7.00
NS(=O)(=O)NC[C@@H]1C[C@@H](n2ccc3c(N[C@H]4CCc5ccccc54)ncnc32)C[C@@H]1O [Compound I-56, N-[((1S,2S,4R)-4-{4-[(1S)-2,3-dihydro-1H-inden-1-ylamino]-7H-pyrrolo[2,3-d]-pyrimidin-7-yl}-2-hydroxycyclopentyl)methyl]sulfamide] | ≥ 7.00
NS(=O)(=O)CC[C@@H]1C[C@@H](n2ccc3c(N[C@H]4CCc5ccccc54)ncnc32)C[C@@H]1O [Compound I-59, 2-((1S,2S,4R)-4-{4-[(1S)-2,3-dihydro-1H-inden-1-ylamino]-7H-pyrrolo[2,3-d]-pyrimidin-7-yl}-2-hydroxycyclopentyl)ethanesulfonamide] | ≥ 7.00
NS(=O)(=O)OC[C@@H]1C[C@@H](n2ccc3c(N[C@H]4CCc5c(F)cccc54)ncnc32)C[C@@H]1O [Compound I-61, [(1S,2S,4R)-4-(4-{[(1S)-4-fluoro-2,3-dihydro-1H-inden-1-yl]amino}-7H-pyrrolo[2,3-d]pyrimidin-7-yl)-2-hydroxycyclopentyl]methyl sulfamate] | ≥ 7.00
NS(=O)(=O)OC[C@@H]1C[C@@H](n2ccc3c(N[C@H]4CCc5c(F)ccc(F)c54)ncnc32)C[C@@H]1O [Compound I-62, [(1S,2S,4R)-4-(4-{[(1S)-4,7-difluoro-2,3-dihydro-1H-inden-1-yl]amino}-7H-pyrrolo[2,3-d]pyrimidin-7-yl)-2-hydroxycyclopentyl]methyl sulfamate] | ≥ 7.00
NS(=O)(=O)OC[C@@H]1C[C@@H](n2ccc3c(N[C@@H]4CCc5c(Cl)cccc54)ncnc32)C[C@@H]1O [Compound I-63, [(1S,2S,4R)-4-(4-{[(1R)-4-chloro-2,3-dihydro-1H-inden-1-yl]amino}-7H-pyrrolo[2,3-d]pyrimidin-7-yl)-2-hydroxycyclopentyl]methyl sulfamate] | ≥ 7.00
NS(=O)(=O)OC[C@@H]1C[C@@H](n2ccc3c(N[C@H]4CCc5c(Cl)cccc54)ncnc32)C[C@@H]1O [Compound I-64, [(1S,2S,4R)-4-(4-{[(1S)-4-chloro-2,3-dihydro-1H-inden-1-yl]amino}-7H-pyrrolo[2,3-d]pyrimidin-7-yl)-2-hydroxycyclopentyl]methyl sulfamate] | ≥ 7.00

More lines, now with the values ahead:

pIC50 | Structure (SMILES)
≥ 7.00 | CNc1ncnc2c1ccn2[C@@H]1C[C@@H](COS(N)(=O)=O)[C@@H](O)C1 [Compound I-40, {(1S,2S,4R)-2-hydroxy-4-[4-(methylamino)-7H-pyrrolo[2,3-d]pyrimidin-7-yl]-cyclopentyl}methyl sulfamate]
≥ 7.00 | Cc1cc(CNc2ncnc3c2ccn3[C@@H]2C[C@@H](COS(N)(=O)=O)[C@@H](O)C2)no1 [Compound I-41, [(1S,2S,4R)-2-hydroxy-4-(4-{[(5-methylisoxazol-3-yl)methyl]amino}-7H-pyrrolo-[2,3-d]pyrimidin-7-yl)cyclopentyl]methyl sulfamate]
≥ 7.00 | NS(=O)(=O)OC[C@@H]1C[C@@H](n2ccc3c(NCc4ccc(Cl)cc4C(F)(F)F)ncnc32)C[C@@H]1O [Compound I-42, [(1S,2S,4R)-4-(4-{[4-chloro-2-(trifluoromethyl)benzyl]amino}-7H-pyrrolo[2,3-d]-pyrimidin-7-yl)-2-hydroxycyclopentyl]methyl sulfamate]
≥ 7.00 | COc1ccccc1CNc1ncnc2c1ccn2[C@@H]1C[C@@H](COS(N)(=O)=O)[C@@H](O)C1 [Compound I-43, ((1S,2S,4R)-2-hydroxy-4-{4-[(2-methoxybenzyl)amino]-7H-pyrrolo[2,3-d]-pyrimidin-7-yl)cyclopentyl)methyl sulfamate]
≥ 7.00 | C#Cc1cn([C@@H]2C[C@@H](COS(N)(=O)=O)[C@@H](O)C2)c2ncnc(C)c12 [Compound I-44, [(1S,2S,4R)-4-(5-ethynyl-4-methyl-7H-pyrrolo[2,3-d]pyrimidin-7-yl)-2-hydroxycyclopentyl]methyl sulfamate]
≥ 7.00 | NS(=O)(=O)OC[C@@H]1C[C@@H](n2ccc3c(NCc4ccc(Cl)cc4)ncnc32)C[C@@H]1O [Compound I-45, ((1S,2S,4R)-4-{4-[(4-chlorobenzyl)amino]-7H-pyrrolo[2,3-d]pyrimidin-7-yl}-2-hydroxycyclopentyl)methyl sulfamate]
≥ 7.00 | Cc1ncnc2c1ccn2[C@@H]1C[C@@H](COS(N)(=O)=O)[C@@H](O)C1 [Compound I-46, [(1S,2S,4R)-2-hydroxy-4-(4-methyl-7H-pyrrolo[2,3-d]pyrimidin-7-yl)cyclopentyl]methyl sulfamate]
≥ 7.00 | NS(=O)(=O)OC[C@@H]1C[C@@H](n2ccc3c(NCc4ccccc4C(F)(F)F)ncnc32)C[C@@H]1O [Compound I-47, [(1S,2S,4R)-2-hydroxy-4-(4-{[2-(trifluoromethyl)benzyl]amino}-7H-pyrrolo-[2,3-d]pyrimidin-7-yl)cyclopentyl]methyl sulfamate]
≥ 7.00 | Cc1cc(Cl)ccc1CNc1ncnc2c1ccn2[C@@H]1C[C@@H](COS(N)(=O)=O)[C@@H](O)C1 [Compound I-48, ((1S,2S,4R)-4-{4-[(4-chloro-2-methylbenzyl)amino]-7H-pyrrolo[2,3-d]pyrimidin-7-yl}-2-hydroxycyclopentyl)methyl sulfamate]
≥ 7.00 | NS(=O)(=O)OC[C@@H]1C[C@@H](n2ccc3c(NCc4ccccc4)ncnc32)C[C@@H]1O [Compound I-49, {(1S,2S,4R)-4-[4-(benzylamino)-7H-pyrrolo[2,3-d]pyrimidin-7-yl]-2-hydroxycyclopentyl}methyl sulfamate]
